In US20100130598A1, “METHODS FOR INDUCING PROGRAMMED CELL DEATH” (Novogen Research Pty Ltd., priority 2008, published 2010):

How the values were obtained:
EOC tumors = assay: Mouse EOC xenograft study; assay type: in vivo; settings: 3 weeks; for T/C values (maximal tumor inhibition, treated/control): intra-peritoneal, Compound 1 100 mg/kg every day, Carboplatin 40 mg/kg q×7d, Paclitaxel 10 mg/kg q×3d
Procedure: Mouse xenograft studies. The in vivo study as approved by the Yale University Institutional Animal Care & Use Committee. Cells (1×10^6 cells) were resuspended in 200 μ1 total volume of 50% RPMI and 50% BD Matrigel Matrix (BD Biosciences, Bedford, Mass.) and injected subcutaneously into the right flank of NCR nude mice. Intra-peritoneal therapy commenced eight days post-inoculation as follows: Paclitaxel 10 mg/kg q×3d, Carboplatin 40 mg/kg q×7d, and Compound 1 in 20% HPBCD, 100 mg/kg every day. Control groups received 20% HPBCD in PBS. Mice were treated and observed for 3 weeks. Tumor size was determined by caliper measurements and anti-tumor activity was analyzed with respect to maximal tumor inhibition (treated/control, T/C) as described previously (Kamsteeg et al, 2003).

MIAPaCa-2 = MIAPaCa-2 pancreatic cancer xenograft; assay type: in vivo, Balb/c nude mice; settings: MIAPaCa-2 model; Compound 10 100 mg/kg oral qd×12, gemcitabine 20 mg/kg q3d×4, alone or combined
Procedure: For xenograft studies, five week old male Balb/c nude mice were maintained on an isoflavone-free diet to remove background isoflavone levels contributed by standard feed. On the day of inoculation a suspension of MIAPaCa2 or HPAC cells was prepared in DMEM (-FBS), chilled on ice and then an equal volume of matrigel (BD) was added. Mice were inoculated subcutaneously with 3×10^6 MIAPaCa2 or HPAC cells bilaterally (midway between the axillary and inguinal region) along the dorsal surface, ensuring that cells to be injected were growing at mid-end log phase. Tumor growth was monitored over 10-15 days. Compound 10 was given orally by gavage in 1% carboxy methyl cellulose (CMC) as a vehicle. Gemcitabine was injected intraperiponeally in PBS. In combination groups animals were first dosed with Compound 10 and then dosed with gemcitabine using the respective administration schedule, dosage and route of delivery stated.

caspases-3/7, -8, and -9 = assay: Caspase-3/7, -8, and -9 activity assay (Caspase-Glo) on cell lysates; assay type: cell-based, human; settings: EOC cells, 24 h; increasing concentrations of Compound 1 or 2 μM Paclitaxel
From the text: Protein preparation and cellular fractionation. After drug treatment, protein was extracted and measured as previously described (Alvero et al, 2006). For separation of the cytoplasmic and mitochondrial fractions, cell pellets were processed using the ApoAlert™ Cell Fractionation Kit (BD Biosciences, San Jose, Calif.) according to the manufacturer's instructions. For separation of the cytoplasmic and nuclear fractions, pellets were processed using NE-PER Nuclear and Cytoplasmic Extraction (Pierce Biotechnology, Inc., Rockford, Ill.). Caspase-3/7, -8, and -9 activity assay. Ten μg of protein in a 50 μl total volume was mixed with 50 μl of equilibrated Caspase-Glo^10 3/7, 8, or 9 reagents (Promega). After incubating at room temperature for 1 h, luminescence was measured using TD 20/20 Luminometer (Turner Designs, Sunnyvale, Calif.). Blank values were subtracted and fold-increase in activity was determined in relation to the control non-treatment.

MIAPaCa-2 cells = assay: Apoptosis/necrosis by FACS (Annexin-V-FITC/PI), MIAPaCa-2; assay type: cell-based, human; settings: MIAPaCa-2, 10 μM zVAD-fmk 1 h pre-treatment; 10 μM Compound 10 or 50 ng/mL TRAIL
Procedure: Cells. Human pancreatic cell lines HPAC, MIAPaCa-2 and PANC-1 were obtained from the ATCC. (Manassas, Va.). The cells were maintained in DMEM media with Gln and high glucose (Mediatech, Manassas, Va.) with 10% fetal bovine serum (FBS, HyClone, Logan, Utah) and pencillin/streptomycin.
FACS Analysis. Apoptosis was measured by FACS analysis using Annexin-V-FITC and propidium iodide (PI) (Biovision, Mountain View, Calif.) as probes (Ahn et al., 2003). Mitochondrial membrane potential was measured by FACS analysis using JC-1 (Biovision) as a probe (Ahn et al., 2003). Cell cycle was analyzed on ethanol-fixed, RNaseA-treated cells staining with PI. In each spectrum, 10,000 gated events were recorded and analyzed with a FACSCalibur (BD Biosciences. San Jose, Calif.). All experiments were done in triplicate, error bars represent one standard deviation. Caspase inhibitor I (zVAD-fmk) was obtained from Calbiochem.

`N.N.O=C([O-])C1(C(=O)[O-])CCC1.[Pt+2]` [carboplatin, reference compound] was tested, and the “T/C values (maximal tumor inhibition, treated/control)” value (EOC tumors) was 58% and the toxic side effects (EOC tumors; xenograft mice) was “severe weight loss and cachexia”.

With `Nc1ccn([C@@H]2O[C@H](CO)[C@@H](O)C2(F)F)c(=O)n1` [gemcitabine, reference compound] the “% T/C (mean terminal tumor burden)” value (MIAPaCa-2) was 79%.

For `CC(=O)O[C@H]1C(=O)[C@@]2(C)[C@H]([C@H](OC(=O)c3ccccc3)[C@]3(O)C[C@H](OC(=O)[C@H](O)[C@@H](NC(=O)c4ccccc4)c4ccccc4)C(C)=C1C3(C)C)[C@]1(OC(C)=O)CO[C@@H]1C[C@@H]2O` [Paclitaxel, reference compound], the “caspase-3/7, -8, and -9 activities” value (caspases-3/7, -8, and -9) was “increase” and the “T/C values (maximal tumor inhibition, treated/control)” value (EOC tumors) was 58%.

B1: TRAIL: TRAIL (Alexis), 50 ng/mL, positive caspase-dependent control (protein, UniProt P50591 1-281, looked up)
Tumor necrosis factor ligand …: MAMMEVQGGPSLGQTCVLIVIFTVLLQSLCVAVTYVYFTNELKQMQDKYSKSGIACFLKEDDSYWDPNDEESMNSPCWQVKWQLRQLVRKMILRTSEETISTVQEKQQNISPLVRERGPQRVAAHITGTRGRSNTLSSPNSKNEKALGRKINSWESSRSGHSFLSNLHLRNGELVIHEKGFYYIYSQTYFRFQEEIKENTKNDKQMVQYIYKYTSYPDPILLMKSARNSCWSKDAEYGLYSIYQGGIFELKENDRIFVSVTNEHLIDMDHEASFFGAFLVG
B1 was tested, and the “effect of zVAD-fmk pre-treatment on induced apoptosis” value (MIAPaCa-2 cells) was “inhibition”.
